We go through eleven molecules from US5684205A, “Use of substituted cyclopentane- di- and -triones” (Bayer Aktiengesellschaft, priority 1994, dated 1997).

Each structure is given as a SMILES string.

One assay relates to airway epithelial cell line 4MBr-5. Put plainly: 36Cl chloride efflux inhibition in airway epithelial cell line 4MBr-5. The class given is cell-based. The note with it: 20 min, 10 μg/ml test compound, 20 minutes efflux, 4MBr-5 cells, expressed as a percentage of the maximal inhibition observed with NPPB. Here is the method:
This compound provides a suitable reference standard against which to judge other chloride channel blockers. […] In the test described below maximal inhibition of chloride efflux is observed at 300 μM, with 20% inhibition evident at the standard test concentration of 10 μg/ml.
The airway epithelial cell line 4MBr-5 was obtained from ATCC and cells were cultured in 35 mm diameter wells on six well plates until cell layers were confluent. Cells were loaded with Na^36 CI solutions at 2.5 μCi/well after washing the cell monolayer free of […] culture medium. Washing and loading were performed in Hepes buffer (pH 7.4) containing 130 mM NaCI, 5.4 mM KCI, 1.8 mM CaCI2, 1.0 mM NaH2 PO4, 0.8 mM MgSO4 and 5.5 mM glucose. After a loading period of 60 minutes the cell layer was rapidly washed with 50 mM Hepes in 241 mM sucrose containing […] MgSO4 and the buffer replaced with 2 ml of ^36 CI^- free buffer containing 10 μg/ml test compound, or vehicle control. (Test compound was also present for the final ten minutes of the loading procedure). After 20 minutes efflux was stopped and the radioactivity remaining in the cells determined by liquid scintillation spectrometry after lysis of the cells. After subtraction of the counts found in cells treated with vehicle the increased counts were compared to the corresponding value observed with NPPB and expressed as a percentage of the maximal inhibition.
Regarding `O=C1C(=Cc2ccccc2)C(=O)C(c2ccc(Cl)cc2)=C1O` [19/39], at 10 µg/mL the inhibition was 31.1%.

`CCN(CC)c1ccc(C=C2C(=O)C(O)=C(c3ccccc3)C2=O)cc1` [20/40] returned an inhibition at 10 µg/mL of 22.7%.

With `O=C1C(=Cc2ccc(C(F)(F)F)cc2)C(=O)C(c2ccccc2)=C1O` [16/37], the inhibition at 10 µg/mL was determined as 58.2%.

The molecule `O=C(O)c1cc([N+](=O)[O-])ccc1NCCCc1ccccc1` [NPPB, 2-(3-phenylpropyl)amino-5-nitrobenzoic acid, reference compound] displayed an inhibition at 10 µg/mL of 20%.

As for `COc1ccc(C=C2C(=O)C(O)=C(c3ccccc3)C2=O)cc1` [2/24], the inhibition at 10 µg/mL was 28.6%.

`O=C1C(=Cc2ccc(OCc3ccccc3)cc2)C(=O)C(c2ccccc2)=C1O` [21/41]: the inhibition at 10 µg/mL turned out to be 50.6%.

Consider `COc1ccc(C2=C(O)C(=O)C(=Cc3ccccc3)C2=O)cc1` [18/1], for which testing at 10 µg/mL gave an inhibition of 24%.

The molecule `O=C1C(=Cc2ccccc2O)C(=O)C(c2ccccc2)=C1O` [23/43] registered an inhibition at 10 µg/mL of 36.4%.

`O=C1C(=Cc2ccc(Cl)cc2Cl)C(=O)C(c2ccccc2)=C1O` [15/36] came in with an inhibition at 10 µg/mL of 37.7%.

Molecule `O=C1C(=Cc2ccc(-c3ccccc3)cc2)C(=O)C(c2ccccc2)=C1O` [17/38] registered an inhibition at 10 µg/mL of 83.5%.

As for `COc1ccc(C2=C(O)C(=O)C(=Cc3ccc(Cl)c(Cl)c3)C2=O)cc1` [22/42], the inhibition at 10 µg/mL is 65%.

Still in this assay, the particulars now being: 20 min, 4MBr-5 cells, 36Cl efflux, read-out: concentration at which maximal inhibition of chloride efflux is observed.
Take `O=C(O)c1cc([N+](=O)[O-])ccc1NCCCc1ccccc1` [NPPB, 2-(3-phenylpropyl)amino-5-nitrobenzoic acid, reference compound]: the IC (maximal) was determined as 300 µM.
